Like-named read-outs stand apart in the source and are kept apart here. Where no end group is shown, it is not given here.
Key:
[1] = Extended solubility and short term stability study (visual, U-HPLC recovery, DLS, 90LS, UV-VIS, sum of scores); conditions: for solubility: pH 4.5
Protocol: For that purpose, the peptides were provided as acetate salts (produced by Innovagen® at a >10 mg scale of manufacturing). To take into account batch-to-batch variations, some peptides were tested from other batches of the manufacturer Innovagen®, as well as from another manufacturer (Almac) and from in-house production. Solubility experiments were performed on peptide in solution in concentrations ranging from 0.5 mg/mL to 3 mg/mL (dry matter)—with the following solvents: • Water • Acetate buffer, pH 4.5 (25 mM sodium acetate containing 250 mM D-Mannitol) • Phosphate buffer, pH 7.0 (25 mM sodium phosphate containing 250 mM D-Mannitol) • Glycine buffer, pH 8.5 (25 mM glycine containing 250 mM D-Mannitol)
The solubility of the peptides was initially investigated by visual inspection and U-HPLC recovery. Visual inspection included assessment of turbidity and presence of particles/aggregates of each peptide solution before and after centrifugation as well as visual inspection of pelleted material. The visual inspection were reported as “clear solution”, “very small precipitation only visible with a magnifier”, “precipitation visible/turbid solution” or “more precipitation/turbid solution”. Filtration of peptide solutions were conducted using syringe based filters containing a polyethersulfone (PES) membrane chemistry and a pore size of 0.2 μm. The amount of the peptide in the supernatant of a filtered sample was determined using U-HPLC with reverse phase chromatography and recovery were determined as described in Example 5.
Peptide solutions were investigated at a time point of 1 hour after production, but were also repeated at later time point (e.g. 24. 48 or 96 hours) to investigate the stability of the peptides.
Peptide solutions were investigated to determine the presence of turbidity/particles/aggregates by use of optical density (OD) and change in UV-VIS absorbance at a wavelength of 320 nm, of the filtrate. […] In addition or as an alternative, the amount of the peptide in the supernatant of a filtered sample was determined using U-HPLC as described above, with the exception that the recovery was determined by dividing the peak area of the filtered sample in relation to the peak area in the original solution prior to filtration. See also Example 5 for further details regarding UV-VIS, and recovery measured by U-HPLC.
The peptides were scored in relation to the outcome of the above mentioned tests: For each peptide in a given buffer and at a given concentration, a sum of test scores was calculated and the sum used to rank the peptides according to solubility: • 1. […] DLS peak 1 number 3 nm gave a score of 1, 3-10 nm gave a score of 2, 10-100 nm gave a score of 3, >100 nm gave a score of 4. • 5. 90LS at 400 nm: Intensity <450 gave a score of 1, <800 gave a score of 2, >800 gave a score of 3. • 6. UV-VIS change in absorbance at 320 nm within 24 hours: 0.01 gave a score of 1, ≤0.05 gave a score of 2, 0.0.2 gave a score of 3 and >0.2 gave a score of 4.

[2] = tested on: release of IL-5 upon T cell activation; test: Fluorospot assay, IL-5 release (DK1-TCL01, US1-TCL01); assay type: cell-based, human; conditions: head prints TCL-02 DK1; text: 25 TCL-01 DK1 lines
How it was run: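 Grass-allergic donors' CD8-depleted PBMCs were expanded 14 days with natural grass allergens plus IL-2 to give TCL01 lines. These were incubated 20 h at 37° C with single peptides or peptide mixes at 2 μg/ml, and spot-forming cells were counted. Hit: SI≥2, p≤0.05, Poisson ≤0.05, ≥20 SFC/10^6 cells.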

Substance | solubility in aqueous solutions and short-term stability [1] | solubility [1] | solubility in all the test samples (concentrations and pH tested), all solubility tests [1] | solubility by ranking scheme based on a sum of scores ([1]; 3 mg/ml, buffers tested) | solubility in aqueous solutions and short-term stability ([1]; pH in the range of 4.5 to 8.5) | IL-5-Fluorospotr % donor coverage (TCL-02 DK1) [2] [%]
AYESYKFIPALEAAVKQAYA-OH [peptide 285] |  |  |  | good solubility | sufficiently soluble | 
PANDKFTVFEAAFNNAIKAS-OH [compound 70] |  |  |  |  |  | 16.00
STGGAYESYKFIPALEAAVK-OH [compound 71] | sufficiently soluble | acceptable solubility | good solubility |  |  | 32.00
VATLSEALRIIAGTLEVHAV-OH [compound 67] |  |  |  |  |  | 32.00

Second part, led by results:

solubility in aqueous solutions and short-term stability [1] | solubility [1] | solubility in all the test samples (concentrations and pH tested), all solubility tests [1] | Substance | solubility by ranking scheme based on a sum of scores ([1]; 3 mg/ml, buffers tested) | solubility in aqueous solutions and short-term stability ([1]; pH in the range of 4.5 to 8.5) | IL-5-Fluorospotr % donor coverage (TCL-02 DK1) [2] [%]
sufficiently soluble | acceptable solubility |  | DKYRTFVATFGAASNKAFAE-OH [peptide 231] |  |  | 
sufficiently soluble | acceptable solubility | good solubility | TDDNEEPIAPYHFDLSGHAF-OH [peptide 204] |  |  | 
sufficiently soluble | acceptable solubility |  | WGAIWRIDTPDKLTGPFTVR-OH [peptide 211] |  |  | 

Source: patent US20180207228A1, “PEPTIDE COMBINATIONS AND USES THEREOF FOR TREATING GRASS ALLERGY” (ALK-Abelló A/S, priority 2015, published 2018)
